In US11236055B2 (Venenum Biodesign, LLC, priority 2016, dated 2022):
Structures can show the parent of a compound that is named as a salt.

Assays:
[1] = molecular target: T1, mouse TGR5 receptor (Mus musculus, UniProt Q80SS6); assay: Mouse TGR5 cAMP production assay (HTRF, Cisbio cAMP HiRange); assay type: cell-based; settings: HEK293-EBNA cells overexpressing mouse TGR5, HTRF cAMP HiRange; coded A-D
T1 construct: expressed in transfected cells; host or cells: HEK293-EBNA (293 c18, ATCC CRL10852), Hygromycin B selection
T1 sequence (Q80SS6 1-329): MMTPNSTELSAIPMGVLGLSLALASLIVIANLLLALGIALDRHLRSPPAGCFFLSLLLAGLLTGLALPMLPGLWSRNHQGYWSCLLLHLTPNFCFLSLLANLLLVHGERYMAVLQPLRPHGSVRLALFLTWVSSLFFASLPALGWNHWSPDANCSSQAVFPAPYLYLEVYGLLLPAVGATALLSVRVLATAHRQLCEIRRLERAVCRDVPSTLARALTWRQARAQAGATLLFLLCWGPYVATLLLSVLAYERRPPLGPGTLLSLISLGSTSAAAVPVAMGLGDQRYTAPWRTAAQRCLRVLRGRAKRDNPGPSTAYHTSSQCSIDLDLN
Outline: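 cAMP read by HTRF competition after 1 h room-temperature compound exposure of mouse TGR5-overexpressing HEK293-EBNA cells. Cells were suspended in serum-free DMEM containing 500 μM IBMX; compounds ran as 12-point half-log dilutions in duplicate; EC50 derived.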

[2] = molecular target: T2, human TGR5 receptor (Homo sapiens, UniProt Q8TDU6); assay: Human TGR5 cAMP production assay; assay type: cell-based; settings: human TGR5, luminescent cAMP assay; coded A-D; read-out: Human TGR5 Lum. cAMP Activity (EC50)
T2 construct: host or cells: CHO-K1 (hTGR5-CHO cells)
T2 sequence (Q8TDU6 1-330): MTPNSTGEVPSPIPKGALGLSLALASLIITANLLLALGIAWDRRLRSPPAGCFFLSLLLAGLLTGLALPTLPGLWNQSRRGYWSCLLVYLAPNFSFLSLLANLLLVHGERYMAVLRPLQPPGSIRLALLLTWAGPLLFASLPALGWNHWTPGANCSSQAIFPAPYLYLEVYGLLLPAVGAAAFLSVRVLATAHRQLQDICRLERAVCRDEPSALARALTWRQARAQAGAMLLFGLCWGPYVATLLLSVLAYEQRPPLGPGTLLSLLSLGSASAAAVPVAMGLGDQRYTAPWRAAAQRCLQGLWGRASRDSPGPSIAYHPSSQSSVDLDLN
Outline: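 Intracellular cAMP read by luminescent enzyme-complementation (XS+) after overnight development, following 1 h room-temperature compound treatment of hTGR5-CHO-K1 cells in IBMX plus anti-cAMP antibody. Compounds tested as half-log dilution series; EC50 derived.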

Row | SMILES | EC50 [1] [nM] | EC50 [2] [nM]
1 | Cc1cnccc1-c1cccc([C@H](C)N(CCCC(=O)N2CCC[C@H]2C(=O)O)S(=O)(=O)c2cccc(Cl)c2C)c1 [Compound 21AJ, (S)-1-(4-(3-chloro-2-methyl-N-((S)-1-(3-(3-methylpyridin-4-yl)phenyl)ethyl)phenylsulfonamido)butanoyl)pyrrolidine-2-carboxylic acid] | 100 to 999 | < 100
2 | COc1cnccc1-c1cccc(C(CO)NS(=O)(=O)c2cccc(C(F)(F)F)c2)c1 (racemic) [Compound 17, (+/−) N-(2-hydroxy-1-(3-(3-methoxypyridin-4-yl)phenyl)ethyl)-3-(trifluoromethyl)benzenesulfonamide] | 1000 to 30000 | 100 to 999
3 | Cc1nccc(-c2cccc([C@H](C)N(CCCC(=O)O)S(=O)(=O)c3cccc(Cl)c3C)c2)c1C [Compound 14AG, (S)-4-(3-chloro-N-(1-(3-(2,3-dimethylpyridin-4-yl)phenyl)ethyl)-2-methylphenylsulfonamido)butanoic acid] | 100 to 999 | 100 to 999
4 | Cc1cnccc1-c1cccc(C(C)(C)N(CCCNc2ncc(C(=O)O)cn2)S(=O)(=O)c2cccc(Cl)c2C)c1 [Compound 27, 2-((3-((3-chloro-2-methyl-N-(2-(3-(3-methylpyridin-4-yl)phenyl)propan-2-yl)phenyl)sulfonamido)propyl)amino)pyrimidine-5-carboxylic acid] | 100 to 999 | < 100
5 | COc1cnccc1-c1cccc(CCNS(=O)(=O)c2ccccc2C(F)(F)F)c1 [Compound 1CF] | 1000 to 30000 | 100 to 999
6 | Cc1c(Cl)cccc1S(=O)(=O)N[C@@H](C)c1cccc(-c2ccnn2C)c1 [Compound 4, (S)-3-Chloro-2-methyl-N-(1-(3-(1-methyl-1H-pyrazol-5-yl)phenyl)ethyl)benzenesulfonamide] | 1000 to 30000 | 100 to 999
7 | CCc1cnccc1-c1cccc(C(C)(C)NS(=O)(=O)c2ccccc2[N+](=O)[O-])c1 [Compound 5AO, N-(2-(3-(3-ethylpyridin-4-yl)phenyl)propan-2-yl)-2-nitrobenzenesulfonamide] | < 100 | < 100
8 | Cc1cnccc1-c1cccc([C@@H](C)N(CCCC(=O)O)S(=O)(=O)c2cccc(Cl)c2C)c1 [Compound 16AA, (R)-4-(3-chloro-2-methyl-N-(1-(3-(3-methylpyridin-4-yl)-phenyl)ethyl)phenylsulfonamido)butanoic acid] | 1000 to 30000 | 100 to 999
9 | Cc1cnccc1-c1cccc([C@H](C)N(CCCCNCCC(=O)O)S(=O)(=O)c2cccc(Cl)c2C)c1 [Compound 33, (S)-3-((4-(3-chloro-2-methyl-N-(1-(3-(3-methylpyridin-4-yl)phenyl)ethyl)phenylsulfonamido)butyl)amino)propanoic acid] | 100 to 999 | 100 to 999
10 | CCc1cnccc1-c1cccc(C2CN(C(=O)[C@@H](N)CS(=O)(=O)O)CCN2S(=O)(=O)c2cccc(Cl)c2C)c1 (mixture of isomers) [Compound 48, (2R)-2-amino-3-(4-((3-chloro-2-methylphenyl)sulfonyl)-3-(3-(3-ethylpyridin-4-yl)phenyl)piperazin-1-yl)-3-oxopropane-1-sulfonic acid hydrochloride] | < 100 | 100 to 999
11 | CCc1cnccc1-c1cccc(C2CN(CC(=O)O)CCN2S(=O)(=O)c2cccc(Cl)c2C)c1 (stereo not drawn) [Compound 51, 2-(4-((3-Chloro-2-methylphenyl)sulfonyl)-3-(3-(3-ethylpyridin-4-yl)phenyl)piperazin-1-yl)acetic acid] | 100 to 999 | 100 to 999
12 | Cc1cnccc1-c1cccc([C@H](C)N(CCCCC(=O)NCCOCCNC(=O)CS(=O)(=O)O)S(=O)(=O)c2cccc(Cl)c2C)c1 [Compound 31, (S)-15-((3-chloro-2-methylphenyl)sulfonyl)-16-(3-(3-methylpyridin-4-yl)phenyl)-2,10-dioxo-6-oxa-3,9,15-triazaheptadecane-1-sulfonic acid] | < 100 | < 100
13 | Cc1cnccc1-c1cccc(C(C)(C)N(CCCNS(=O)(=O)CCNC(=N)N)S(=O)(=O)c2cccc(Cl)c2C)c1 [Compound 27AC, 3-chloro-N-(3-((2-guanidinoethyl)sulfonamido)propyl)-2-methyl-N-(2-(3-(3-methylpyridin-4-yl)phenyl)propan-2-yl)benzenesulfonamide] | 100 to 999 | < 100
14 | Cc1cnccc1-c1cccc(C2CN(C(=O)CCC(=O)O)CCN2S(=O)(=O)c2cccc(Cl)c2C)c1 (stereo not drawn) [Compound 46AD, 4-(4-((3-chloro-2-methylphenyl)sulfonyl)-3-(3-(3-methylpyridin-4-yl)phenyl)piperazin-1-yl)-4-oxobutanoic acid] | < 100 | 100 to 999
15 | Cc1cnccc1-c1cccc(C(CCC(=O)O)NS(=O)(=O)c2ccccc2C(F)(F)F)c1 (stereo not drawn) [Compound 19, 4-(3-(3-methylpyridin-4-yl)phenyl)-4-(2-(trifluoromethyl)phenylsulfonamido)butanoic acid] | 100 to 999 | 1000 to 30000
16 | Cc1cnccc1-c1cccc(C(C)(C)N(CCCN)S(=O)(=O)c2cccc(Cl)c2C)c1 [Compound 23, N-(3-aminopropyl)-3-chloro-2-methyl-N-(2-(3-(3-methylpyridin-4-yl)phenyl)propan-2-yl)benzenesulfonamide] | 1000 to 30000 | < 100
17 | Cc1cnccc1-c1cccc(C2CNCCN2S(=O)(=O)c2cccc(Cl)c2C)c1 (stereo not drawn) [Compound 43AE, 1-((3-chloro-2-methylphenyl)sulfonyl)-2-(3-(3-methylpyridin-4-yl)phenyl)piperazine] | 100 to 999 | 100 to 999
18 | Cc1cnccc1-c1cccc(C(C)(C)N(CCCNS(=O)(=O)CCN2C(=O)c3ccccc3C2=O)S(=O)(=O)c2cccc(Cl)c2C)c1 [Compound 26A, 3-Chloro-N-(3-((2-(1,3-dioxoisoindolin-2-yl)ethyl)sulfonamido)propyl)-2-methyl-N-(2-(3-(3-methylpyridin-4-yl)phenyl)propan-2-yl)benzenesulfonamide] | 100 to 999 | < 100
19 | Cc1c(Cl)cccc1S(=O)(=O)N1CCN(C(=O)CS(=O)(=O)O)CC1c1cccc(-c2ccncc2)c1 (stereo not drawn) [Compound 49AD, 2-(4-((3-chloro-2-methylphenyl)sulfonyl)-3-(3-(pyridin-4-yl)phenyl)piperazin-1-yl)-2-oxoethanesulfonic acid] | 100 to 999 | 100 to 999
20 | CC(C)(NS(=O)(=O)c1cccc(C(F)(F)F)c1)c1cccc(-c2ccncc2N)c1 [Compound 1AM] | 100 to 999 | < 100
21 | Cc1cnccc1-c1cccc(C(C)(C)N(CCCC(=O)N[C@@H](C)C(=O)O)S(=O)(=O)c2cccc(Cl)c2C)c1 [Compound 21AF, (S)-2-(4-(3-chloro-2-methyl-N-(2-(3-(3-methylpyridin-4-yl)phenyl)propan-2-yl)phenylsulfonamido)butanamido)propanoic acid] | < 100 | < 100
22 | Cc1cnccc1-c1cccc([C@H](C)N(CCCC(=O)NCCC(=O)O)S(=O)(=O)c2cccc(Cl)c2C)c1 [Compound 21AH, (S)-3-(4-(3-chloro-2-methyl-N-(1-(3-(3-methylpyridin-4-yl)phenyl)ethyl)phenylsulfonamido)butanamido)propanoic acid] | 100 to 999 | < 100
23 | COc1cnccc1-c1cccc(C(C)(C)NS(=O)(=O)c2cc(C(F)(F)F)ccc2C(F)(F)F)c1 [Compound 2BK] | 1000 to 30000 | 100 to 999
24 | Cc1cnccc1-c1cccc(C(C)(C)NS(=O)(=O)c2ccccc2[N+](=O)[O-])c1 [Compound 5AP, N-(2-(3-(3-methylpyridin-4-yl)phenyl)propan-2-yl)-2-nitrobenzenesulfonamide] | 100 to 999 | < 100
25 | CC[C@H](NS(=O)(=O)c1ccccc1C(F)(F)F)c1cccc(-c2ccncc2OC)c1 [Compound 1CD] | 100 to 999 | < 100
26 | Cc1c(Cl)cccc1S(=O)(=O)N(CCCC(=O)O)[C@@H](C)c1cccc(-c2ccncc2)c1 [Compound 14AD, (S)-4-(3-chloro-2-methyl-N-(1-(3-(pyridin-4-yl)phenyl)ethyl)phenylsulfonamido)butanoic acid] | 100 to 999 | 100 to 999
27 | Cc1cc2nccn2cc1-c1cccc(C(C)(C)NS(=O)(=O)c2ccccc2C(F)(F)F)c1 [Compound 5AK, N-(2-(3-(7-methylimidazo[1,2-a]pyridin-6-yl)phenyl)propan-2-yl)-2-(trifluoromethyl)benzenesulfonamide] | 1000 to 30000 | 100 to 999
